Common to all, as to assay type: biochemical
One assay deals with Lyn (Homo sapiens, UniProt P07948). The experiment in a line: radiometric kinase assay and 400-kinase panel (ProQinase); also Ba/F3 cells expressing the kinase domain.
For the next assay, the target named is Syk (Homo sapiens, UniProt P43405). Described as above.
In another assay the target is T1, Bmx (Homo sapiens, UniProt P51813).
T1 sequence (P51813 1-675): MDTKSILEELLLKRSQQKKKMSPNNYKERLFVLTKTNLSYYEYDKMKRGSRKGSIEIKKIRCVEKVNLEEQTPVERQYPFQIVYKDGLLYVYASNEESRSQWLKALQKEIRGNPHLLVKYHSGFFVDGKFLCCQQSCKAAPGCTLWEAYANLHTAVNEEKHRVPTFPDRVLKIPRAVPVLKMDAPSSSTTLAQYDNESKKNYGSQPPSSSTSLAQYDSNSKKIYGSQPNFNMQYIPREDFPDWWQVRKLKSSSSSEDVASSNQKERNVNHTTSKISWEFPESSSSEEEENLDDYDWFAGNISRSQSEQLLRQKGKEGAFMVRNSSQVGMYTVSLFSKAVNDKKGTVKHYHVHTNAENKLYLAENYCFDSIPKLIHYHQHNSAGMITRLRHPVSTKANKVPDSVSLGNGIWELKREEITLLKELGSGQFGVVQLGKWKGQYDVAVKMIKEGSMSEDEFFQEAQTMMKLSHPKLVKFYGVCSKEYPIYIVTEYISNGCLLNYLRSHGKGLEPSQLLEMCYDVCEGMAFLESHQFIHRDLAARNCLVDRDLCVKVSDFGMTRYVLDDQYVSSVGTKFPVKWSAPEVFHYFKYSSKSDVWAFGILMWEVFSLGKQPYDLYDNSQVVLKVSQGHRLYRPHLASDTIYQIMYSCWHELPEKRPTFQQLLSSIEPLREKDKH
The experiment in a line: 400-kinase panel, residual activity at […].

Another assay addresses Btk (Homo sapiens, UniProt Q06187). The experiment in a line: radiometric kinase assay and 400-kinase panel (ProQinase); also Ba/F3 cells expressing the kinase domain.

Btk, sequence (Q06187 2-659): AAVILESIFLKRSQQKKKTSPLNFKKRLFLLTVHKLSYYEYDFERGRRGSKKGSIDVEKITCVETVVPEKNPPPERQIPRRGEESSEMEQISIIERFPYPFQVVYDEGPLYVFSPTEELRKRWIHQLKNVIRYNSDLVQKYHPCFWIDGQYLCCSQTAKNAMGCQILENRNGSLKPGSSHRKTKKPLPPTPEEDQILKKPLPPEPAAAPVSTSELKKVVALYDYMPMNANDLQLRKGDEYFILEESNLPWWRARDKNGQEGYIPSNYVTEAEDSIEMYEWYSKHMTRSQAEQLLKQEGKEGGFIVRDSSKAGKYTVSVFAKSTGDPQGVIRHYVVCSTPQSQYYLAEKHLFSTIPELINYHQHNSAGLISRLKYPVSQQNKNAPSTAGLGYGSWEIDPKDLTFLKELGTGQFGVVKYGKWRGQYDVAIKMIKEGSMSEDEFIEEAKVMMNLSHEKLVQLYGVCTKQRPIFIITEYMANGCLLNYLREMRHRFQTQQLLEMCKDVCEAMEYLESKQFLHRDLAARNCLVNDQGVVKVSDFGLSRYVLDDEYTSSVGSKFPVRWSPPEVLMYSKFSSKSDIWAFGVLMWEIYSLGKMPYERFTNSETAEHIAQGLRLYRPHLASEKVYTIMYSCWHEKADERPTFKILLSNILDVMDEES
Lyn, sequence (P07948 2-512): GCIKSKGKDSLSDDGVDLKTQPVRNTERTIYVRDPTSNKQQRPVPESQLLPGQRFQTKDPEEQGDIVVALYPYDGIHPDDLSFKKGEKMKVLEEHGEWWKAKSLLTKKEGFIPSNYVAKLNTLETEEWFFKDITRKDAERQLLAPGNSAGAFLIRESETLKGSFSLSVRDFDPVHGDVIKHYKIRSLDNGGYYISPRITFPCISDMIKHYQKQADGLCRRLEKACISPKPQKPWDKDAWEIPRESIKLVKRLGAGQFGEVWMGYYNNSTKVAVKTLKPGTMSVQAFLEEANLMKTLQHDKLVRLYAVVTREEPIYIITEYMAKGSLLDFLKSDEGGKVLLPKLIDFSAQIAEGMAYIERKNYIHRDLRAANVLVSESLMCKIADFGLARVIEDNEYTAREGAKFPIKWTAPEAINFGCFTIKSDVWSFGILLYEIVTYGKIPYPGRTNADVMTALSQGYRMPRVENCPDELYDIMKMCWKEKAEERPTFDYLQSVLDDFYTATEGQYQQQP

One may read the IC50 as the concentration that inhibits the measured activity by half. Read a high IC50 as lower potency. In the case of `CN1CCN(c2ccc(Nc3nc(N)c4cc(-c5c(Cl)cccc5Cl)c(=O)n(C)c4n3)cc2)CC1` [compound 19, IQS019], the IC50 came to 0.15 µM at Lyn, 1.6 µM on Syk and 2.1 µM on Btk. For the same molecule, the “400-kinase panel, residual activity at 0.1 and 10 μM” value at Bmx was “the member of the Tec family of non-receptor tyrosine kinases, Bmx”.

The values above are taken from PMC5374673, “Activity of the novel BCR kinase inhibitor IQS019 in preclinical models of B-cell non-Hodgkin lymphoma” (Journal of Hematology & Oncology, 2017).
